pEC50, pIC50: −log10 of the molar value. Read-outs that look alike come from different tables or passages of the source.
Legend:
KDM6A = target: T1, KDM6A (Homo sapiens, UniProt O15550); experiment: Biochemical KDM inhibition assay (LANCE), KDM6A; conditions: read-out: Biochemical IC50 KDM 6A
T1 construct: host or cells: Sf9 cells
Protocol: Representative compounds were characterized for their inhibition of KDM5 using biotinylated histone substrates. Inhibition was measured in vitro (CEREP Poitier, Le Bois l'Evêque, France) following experimental conditions described in Table 2. Briefly, the test compound, reference compound or water (control) was mixed with about 2-20 ng of recombinant, Human enzymes expressed in Sf9 cells in a buffer containing 45 mM Hepes/Tris (pH 7), 5 μM FAS, 100 μM ascorbic acid, 10 μM 2-oxoglutarate, 0.01% Tween 20 and 0.01% BSA. Thereafter, the reaction was initiated by adding the biotin-labeled substrate, and the mixture was incubated for 10-30 min at room temperature. For basal control measurements, the enzyme was omitted from the reaction mixture. Following incubation the reaction was stopped by adding 1 mM EDTA. After 5 min, the anti-methyl histone antibody labeled with europium chelate and the Ulight streptavidine (Perkin Elmer Waltham, Mass.) were added. After 60 min more, the fluorescence transfer was measured at λex=320 nm and λem=620 and λem=665 nm using a microplate reader (Envision, Perkin Elmer) (LANCE). The enzyme activity was determined by dividing the signal measured at λem=665 nm by that measured at 620 nm (ratio).

HBV [1] = experiment: Determination of HBV viral RNA by RT-qPCR in PHH; type: cell-based; conditions: Hepatitis B virus, read-out: HBV RNA EC50
Protocol: HBV antiviral activity was assessed in primary human hepatocytes (PHH) in a 96-well format. PHH were (Life Technologies, Chicago, 11) plated on collagen coated tissue culture plates using Plating Media containing William's Medium E supplemented with 1% Penicillin/Streptomycin, 4 μg/mL human recombinant insulin, 2 mM glutamax, 15 mM Hepes, 1 μM dexamethasone and 5% fetal bovine serum (Life Technologies, Cat#A12176-01 Life Technologies, Chicago, Ill.). After a 4-hour incubation at 37° C., cells were switched to Maintenance Media (Cat#CM4000-A15564 Life Technologies, Chicago, Ill.) containing William's Medium E supplemented with 0.5% Penicillin/Streptomycin, 6.25 μg/mL human recombinant insulin, 6.25 μg/mL human transferrin, 6.25 ng/mL selenous acid, 1.25 mg/mL bovine serum albumin, 5.35 μg/mL linoleic acid, 2 mM glutamax, 15 mM Hepes, 0.1 μM dexamethasone, 2% fetal bovine serum, and 2% DMSO (Cat#D2650 Sigma, St. Louis, Mo.). On the next day, cells were infected with approximately 500 genome equivalent of selected HBV clinical isolates (21P (GTA), 32P (GTA), 91P (GTA), AD38 (GTD), 65P (GTD) or 30P (GTE); ProteoGenex, Culver City, Calif.) per cell in Maintenance Media supplemented with 4% PEG 8000 (Cat#V3011 Promega, Madison, Wis.). After 24 hour incubation cells were washed three times with William's Medium E and fed with fresh Maintenance Media. Small molecule inhibitors targeting KDMs were serially diluted in Maintenance Media and added to cells at 3 days post infection (p.i.). Media with compounds was replenished every 2-3 days. Media collected on various days was used for determination of HBsAg and HBeAg levels by MSD ELISA, and HBV RNA by qPCR. All data were converted into percentages of the untreated control and non-linear regression was performed to calculate EC50 or CC50 values.
Following the Alamar Blue measurement, media was removed and total RNA from the cells was isolated using the RNeasy 96 Kit (Cat#74182 Qiagen, Venlo, Netherlands). […] GAPDH mRNA levels were also measured by RT-qPCR to control for differences in cell number, toxicity, and RNA purification efficiency (Cat#4390849 Life Technologies, Chicago Ill.). HBV mRNA Ct values were normalized using their cognate GAPDH mRNA Ct values by the delta-delta-Ct calculation and then expressed as a percentage of the non-targeting scrambled control.

HBV [2] = experiment: Effect of the withdrawal of KDM inhibitors on HBV rebound (HBsAg, HBeAg) in PHH; type: cell-based, Hepatitis B Virus; conditions: for suppression of viral transcription after withdrawal: up to another 14 days after withdrawal; for HBeAg / HBsAg: PHH donor 8181, virus P21, compound removed after two weeks; for rebound of HBsAg or HBeAg secretion into media after compound withdrawal: PHH donor 8181, 21p virus, 14 days treatment, then 14 days without compound
Protocol: PHH from donor 8181 infected with 21p virus was treated with serially diluted Examples 8 or 7 for 14 days. Afterwards the compound was removed and cell cultures were replenished regularly with fresh medium but without compound for another 14 days. The levels of HBsAg and HBeAg secretion were measured during the course of the experiment to monitor the effects of compound on virus replication. No rebound of HBsAg or HBeAg secretion into media was observed after the compound withdrawal.
(§1) PHH from donor 8181 were infected with patient viruses P21 for three days before serially diluted Example 8 was added to the cells. After two weeks of the treatment the compound was removed and cells were followed for another 14 days. Activity of the compound was monitored during the course of the experiment using HBsAg and HBeAg readout. The medium with/without compound was replenished every 3-4 days. Day 0—compound was added to the infected cells.
as §1, with “PHH” for “PHH from”, “8181 was” for “8181 were”, “Example 7” for “Example 8”

[3] = Alamar Blue cell viability assay; type: cell-based; conditions: human; D 28; PHH donor 8181; virus 21p

T1 sequence (O15550 whole entry): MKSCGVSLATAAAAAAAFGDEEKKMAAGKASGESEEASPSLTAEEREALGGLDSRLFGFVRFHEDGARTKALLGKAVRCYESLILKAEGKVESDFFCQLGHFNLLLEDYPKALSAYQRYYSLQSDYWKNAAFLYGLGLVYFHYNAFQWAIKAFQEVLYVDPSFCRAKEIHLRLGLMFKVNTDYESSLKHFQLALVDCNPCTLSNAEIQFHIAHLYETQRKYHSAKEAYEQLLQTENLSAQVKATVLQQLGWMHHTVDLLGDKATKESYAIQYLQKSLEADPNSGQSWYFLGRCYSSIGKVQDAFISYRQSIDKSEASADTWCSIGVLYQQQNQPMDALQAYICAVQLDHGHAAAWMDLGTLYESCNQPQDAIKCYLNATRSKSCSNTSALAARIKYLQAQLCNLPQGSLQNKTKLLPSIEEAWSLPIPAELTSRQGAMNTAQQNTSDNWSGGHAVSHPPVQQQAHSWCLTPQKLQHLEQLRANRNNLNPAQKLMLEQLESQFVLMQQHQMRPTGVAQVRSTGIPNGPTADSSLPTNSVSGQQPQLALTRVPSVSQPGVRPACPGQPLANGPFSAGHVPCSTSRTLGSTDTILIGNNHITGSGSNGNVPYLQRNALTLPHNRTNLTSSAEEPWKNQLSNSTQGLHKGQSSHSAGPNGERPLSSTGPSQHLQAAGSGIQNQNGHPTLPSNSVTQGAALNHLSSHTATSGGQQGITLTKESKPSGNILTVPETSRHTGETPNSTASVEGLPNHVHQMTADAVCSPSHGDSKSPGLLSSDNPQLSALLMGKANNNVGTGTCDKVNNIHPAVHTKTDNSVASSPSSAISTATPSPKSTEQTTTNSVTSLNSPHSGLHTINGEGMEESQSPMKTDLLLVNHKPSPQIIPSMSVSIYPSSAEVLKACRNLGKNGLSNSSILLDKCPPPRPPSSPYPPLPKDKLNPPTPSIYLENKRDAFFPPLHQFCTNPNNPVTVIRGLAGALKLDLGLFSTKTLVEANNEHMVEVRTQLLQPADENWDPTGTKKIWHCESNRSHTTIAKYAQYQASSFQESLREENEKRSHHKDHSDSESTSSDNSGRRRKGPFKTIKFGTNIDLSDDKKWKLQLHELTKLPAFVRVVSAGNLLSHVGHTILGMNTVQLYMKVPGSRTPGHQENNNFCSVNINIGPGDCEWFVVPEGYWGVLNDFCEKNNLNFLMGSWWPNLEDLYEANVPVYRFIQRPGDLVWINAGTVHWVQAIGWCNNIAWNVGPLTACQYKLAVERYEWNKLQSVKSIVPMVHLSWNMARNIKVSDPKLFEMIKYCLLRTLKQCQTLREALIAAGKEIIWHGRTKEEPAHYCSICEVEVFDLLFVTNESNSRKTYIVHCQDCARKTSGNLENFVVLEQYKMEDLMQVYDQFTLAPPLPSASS

With Nc1c(C(=O)O)ccnc1C(=O)O [Example 7, reference compound] the pIC50 (KDM6A) was 6.03, the pEC50 (HBV [1]; HBV-infected PHH) was 6.65 and the “suppression of viral transcription after withdrawal” value (HBV [2]; 2 μM) was “prolonged suppression of viral transcription”. The HBeAg (HBV [2]; 2000 nM, Day 0) was 0 ng/mL, the HBsAg (HBV [2]; 2000 nM, Day 0) was 0 ng/mL and the HBeAg (HBV [2]; 2000 nM, Day 5) was 9.2 ng/mL. The HBsAg (HBV [2]; 2000 nM, Day 5) was 20.6 ng/mL, the HBeAg (HBV [2]; 2000 nM, Day 10) was 25.1 ng/mL and the HBsAg (HBV [2]; 2000 nM, Day 10) was 149.2 ng/mL. For the same molecule, the HBeAg (HBV [2]; 2000 nM, Day 14) was 13.7 ng/mL, the HBsAg (HBV [2]; 2000 nM, Day 14) was 68.6 ng/mL and the HBeAg (HBV [2]; 2000 nM, Day 19) was 7.0 ng/mL. The HBsAg (HBV [2]; 2000 nM, Day 19) was 26.8 ng/mL, the HBeAg (HBV [2]; 2000 nM, Day 24) was 5.3 ng/mL and the HBsAg (HBV [2]; 2000 nM, Day 24) was 11.7 ng/mL. For the same molecule, the HBeAg (HBV [2]; 2000 nM, Day 28) was 5.4 ng/mL, the HBsAg (HBV [2]; 2000 nM, Day 28) was 19.1 ng/mL and the “rebound of HBsAg or HBeAg secretion into media after compound withdrawal” value (HBV [2]) was “No rebound”. The CC50 at 28 day [3] was > 50000 nM.
With CCOC(=O)c1ccnc(CNCC(=O)N(CC)CCN(C)C)c1 [Example 8] the pEC50 (HBV [1]) was 7.00, the HBeAg (HBV [2]; 20 nM, Day 0) was 0 ng/mL and the HBsAg (HBV [2]; 20 nM, Day 0) was 0 ng/mL. It also gave an HBeAg (HBV [2]; 20 nM, Day 5) of 5.3 ng/mL, an HBsAg (HBV [2]; 20 nM, Day 5) of 13.8 ng/mL and an HBeAg (HBV [2]; 20 nM, Day 10) of 31 ng/mL. It also gave an HBsAg (HBV [2]; 20 nM, Day 10) of 147 ng/mL, an HBeAg (HBV [2]; 20 nM, Day 14) of 13 ng/mL and an HBsAg (HBV [2]; 20 nM, Day 14) of 30 ng/mL. The HBeAg (HBV [2]; 20 nM, Day 19) was 3 ng/mL, the HBsAg (HBV [2]; 20 nM, Day 19) was 9 ng/mL and the HBeAg (HBV [2]; 20 nM, Day 24) was 2.3 ng/mL. The HBsAg (HBV [2]; 20 nM, Day 24) was 4.4 ng/mL, the HBeAg (HBV [2]; 20 nM, Day 28) was 1.9 ng/mL and the HBsAg (HBV [2]; 20 nM, Day 28) was 5.26 ng/mL. For the same molecule, the “suppression of viral transcription after withdrawal” value (HBV [2]; 0.08 μM) was “prolonged suppression of viral transcription”, the “rebound of HBsAg or HBeAg secretion into media after compound withdrawal” value (HBV [2]) was “No rebound” and the CC50 at 28 day [3] was 20000 nM.
In the case of CCN(CCN(C)C)C(=O)CNCc1cc(C(=O)O)ccn1 [Example 9], the pIC50 (KDM6A) was 5.89 and the CC50 at 28 day [3] was > 100000 nM.
Work on Cc1cc(Cl)ccc1COc1ccnn1-c1cc(C(=O)O)ccn1 [Example 11] yielded a pIC50 (KDM6A) of 7.13.
With O=C(O)c1ccncc1Nc1nn(CCN2CCC(F)(F)CC2)c2ccc(F)cc12 [Example 13] the pIC50 (KDM6A) was 6.85.
Work on CCN(CC)CCCCNCc1cc(C(=O)O)ccn1 [Example 18] yielded a pIC50 (KDM6A) of 5.26.

Reference: patent US20160303095A1, “METHODS OF TREATING HEPATITIS B VIRUS” (Gilead Sciences, Inc., priority 2015, published 2016)
